Tests used:
SMARCA2 [1] = target: T1, SMARCA2 (Homo sapiens, UniProt P51531); assay: SMARCA2 Western blot MV4-11 degradation; format: cell-based; conditions: 24 h; for Dmax: MV4-11, MV4-11 cells, read-out: SMARCA2 WB MV411 degradation 24 h: Average Dmax %; for DC50: MV4-11 cells, read-out: SMARCA2 WB MV411 degradation 24 h: Average external-Abs DC50
Procedure, shortened: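 MV4-11 cells treated with compound for 24 h, lysed in RIPA with protease/phosphatase inhibitors, and SMARCA2 and SMARCA4 (BRG1) levels assessed by Western blot with β-actin loading control and LI-COR fluorescent read-out. Maximal degradation (Dmax %) after 24 h binned into letter codes.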

SMARCA2 [2] = target: T1, SMARCA2; assay: MSD SMARCA2 degradation in NCI-H1299 cell line (24 h); format: cell-based; set-up: HC: NCI-H1299 cells treated with DMSO; host or cells: NCI-H1299; conditions: for Dmax: NCI-H1299, NCI-H1299 cells; for DC50: read-out: SMARCA2 MSD H1299 degradation 24 h: External Abs-DC50
Procedure, shortened: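 SMARCA2 measured by MSD electrochemiluminescence (primary 0.3 ug/ml, secondary 1 ug/ml) on lysates from NCI-H1299 cells exposed to compounds for 24 h across nine 3-fold dilutions. Signal scaled from A2780 cells (no SMARCA2) to DMSO-treated H1299 controls, and maximal degradation after 24 h reported in letter categories.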

T1 sequence (P51531 whole entry): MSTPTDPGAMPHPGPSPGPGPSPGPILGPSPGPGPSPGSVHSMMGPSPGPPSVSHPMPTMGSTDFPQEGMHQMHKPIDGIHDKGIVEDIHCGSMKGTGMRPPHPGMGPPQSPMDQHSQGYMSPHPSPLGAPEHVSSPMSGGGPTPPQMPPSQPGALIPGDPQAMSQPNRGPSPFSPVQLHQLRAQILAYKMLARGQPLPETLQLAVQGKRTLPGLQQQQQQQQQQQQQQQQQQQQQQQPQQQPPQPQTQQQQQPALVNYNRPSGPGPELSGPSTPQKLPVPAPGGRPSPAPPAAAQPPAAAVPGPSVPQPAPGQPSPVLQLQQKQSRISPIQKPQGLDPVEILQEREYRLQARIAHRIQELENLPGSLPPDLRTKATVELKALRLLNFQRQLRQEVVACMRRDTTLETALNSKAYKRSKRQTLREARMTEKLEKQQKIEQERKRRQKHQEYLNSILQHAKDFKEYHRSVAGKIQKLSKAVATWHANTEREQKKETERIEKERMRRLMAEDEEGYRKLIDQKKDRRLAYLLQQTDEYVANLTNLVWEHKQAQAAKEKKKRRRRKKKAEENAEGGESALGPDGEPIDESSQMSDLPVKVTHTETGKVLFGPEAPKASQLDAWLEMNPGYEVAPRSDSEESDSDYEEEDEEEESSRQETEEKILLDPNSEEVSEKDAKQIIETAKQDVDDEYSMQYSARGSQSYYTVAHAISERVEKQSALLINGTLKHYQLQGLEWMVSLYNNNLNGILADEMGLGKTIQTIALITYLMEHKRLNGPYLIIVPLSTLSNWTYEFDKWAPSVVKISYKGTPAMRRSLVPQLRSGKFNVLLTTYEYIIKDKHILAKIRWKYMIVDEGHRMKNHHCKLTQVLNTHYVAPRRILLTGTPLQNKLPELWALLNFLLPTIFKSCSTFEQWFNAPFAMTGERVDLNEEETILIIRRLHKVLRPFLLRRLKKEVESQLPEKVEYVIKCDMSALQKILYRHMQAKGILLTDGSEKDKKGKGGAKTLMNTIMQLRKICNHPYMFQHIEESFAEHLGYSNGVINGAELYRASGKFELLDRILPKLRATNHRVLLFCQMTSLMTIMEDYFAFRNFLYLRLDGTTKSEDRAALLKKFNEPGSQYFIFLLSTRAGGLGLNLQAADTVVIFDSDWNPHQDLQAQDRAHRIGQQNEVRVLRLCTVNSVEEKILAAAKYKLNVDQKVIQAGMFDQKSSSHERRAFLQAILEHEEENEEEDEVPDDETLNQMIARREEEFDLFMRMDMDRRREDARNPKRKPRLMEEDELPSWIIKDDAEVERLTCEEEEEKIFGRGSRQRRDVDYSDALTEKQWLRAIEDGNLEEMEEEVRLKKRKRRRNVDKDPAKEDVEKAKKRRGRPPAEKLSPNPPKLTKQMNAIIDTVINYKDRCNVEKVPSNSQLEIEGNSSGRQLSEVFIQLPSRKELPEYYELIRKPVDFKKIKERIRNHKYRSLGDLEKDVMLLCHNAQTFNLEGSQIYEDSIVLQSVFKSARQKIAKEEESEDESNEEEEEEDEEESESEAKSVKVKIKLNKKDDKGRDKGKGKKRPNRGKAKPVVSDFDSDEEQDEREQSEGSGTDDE

Row | SMILES | Dmax (SMARCA2 [1]) [%] | DC50 (SMARCA2 [1]) [nM] | Dmax (SMARCA2 [2]) [%] | DC50 (SMARCA2 [2]; NCI-H1299 cells) [nM] | SMARCA2 MSD H1299 degradation 24 h: Dmax % (SMARCA2 [2]; NCI-H1299 cells)
1 | Cn1c(=O)n(C2CCC(=O)NC2=O)c2ccc(CCCCCCCc3nccc(N4C5CCC4CN(c4cc(-c6ccccc6O)nnc4N)C5)n3)cc21 (centres unmarked) [I-287, 3-(5-(7-(4-(3-(3-amino-6-(2-hydroxyphenyl)pyridazin-4-yl)-3,8-diazabicyclo[3.2.1]octan-8-yl)pyrimidin-2-yl)heptyl)-3-methyl-2-oxo-2,3-dihydro-1H-benzo[d]imidazol-1-yl)piperidine-2,6-dione] | 70 to 90 | < 100 | > 90 | 100 to 500 | –
2 | Cc1ncsc1-c1ccc(CNC(=O)[C@@H]2C[C@@H](O)CN2C(=O)[C@@H](NC(=O)[C@H]2CC[C@@H](c3cnc(N4C5CCC4CN(c4cc(-c6ccccc6O)nnc4N)C5)nc3)CC2)C(C)(C)C)cc1 [I-336] | > 90 | < 100 | – | < 100 | –
3 | Cc1ncsc1-c1ccc(CNC(=O)[C@@H]2C[C@@H](O)CN2C(=O)[C@@H](NC(=O)[C@H]2CC[C@H](c3cnc(N4C5CCC4CN(c4cc(-c6ccccc6O)nnc4N)C5)nc3)CC2)C(C)(C)C)cc1 [I-337, (2S,4R)-1-((2S)-2-((1r,4S)-4-(2-(3-(3-amino-6-(2-hydroxyphenyl)pyridazin-4-yl)-3,8-diazabicyclo[3.2.1]octan-8-yl)pyrimidin-5-yl)cyclohexanecarboxamido)-3,3-dimethylbutanoyl)-4-hydroxy-N-(4-(4-methylthiazol-5-yl)benzyl)pyrrolidine-2-carboxamide] | > 90 | < 100 | > 90 | < 100 | –
4 | Cc1ncsc1-c1ccc(CNC(=O)[C@@H]2C[C@@H](O)CN2C(=O)[C@@H](NC(=O)[C@H]2CC3(C2)C[C@H](N2CCC(n4cc(-c5cc(-c6ccccc6O)nnc5N)cn4)CC2)C3)C(C)(C)C)cc1 (some centres unmarked) [I-389] | 70 to 90 | < 100 | – | 100 to 500 | A (A (>90% degradation))
5 | Cc1ncsc1-c1ccc(CNC(=O)[C@@H]2C[C@@H](O)CN2C(=O)[C@@H](NC(=O)[C@H]2CC[C@@H](CN3CCC(n4cc(-c5cc(-c6ccccc6O)nnc5N)cn4)CC3)CC2)C(C)(C)C)cc1 [I-402] | 70 to 90 | < 100 | 70 to 90 | 100 to 500 | –
6 | Cc1ncsc1-c1ccc(CNC(=O)[C@@H]2C[C@@H](O)CN2C(=O)[C@@H](NC(=O)[C@H]2CC[C@H](CN3CCC(n4cc(-c5cc(-c6ccccc6O)nnc5N)cn4)CC3)CC2)C(C)(C)C)cc1 [I-403] | 70 to 90 | < 100 | > 90 | 100 to 500 | –
